Measured values: patent publication US7879837B2, “Therapeutic or prophylactic agent for multiple sclerosis” (Toray Industries, Inc., priority 2006, dated 2011)
Counter-ions that a name gives are not always drawn. Like-named read-outs stand apart in the source and are kept apart here.

Legend:
[1] = tested on: Jurkat cells; assay: Measurement of Inhibitory Effect on Leukocyte Functions (adhesion of Jurkat cells to ligand-expressing cells or ligand-immobilized plate); type: cell-based; settings: Homo sapiens, 0.5 h, read-out: IC50 (concentration at which the number of adherent cells is reduced by 50%)
Description: Jurkat cells, which are the cell line originated from human acute T cell […], were allowed to react with BCECF-AM at 37° C. for 20 minutes to fluorescently label the cells. The fluorescently labelled Jurkat cells were allowed to react with ligand-expressing cells or with a ligand-immobilized plate at 37° C. for 30 minutes. After removing non-adherent cells by washing, 1% NP40 was added thereto to lyse the adherent cells, and fluorescence intensity was measured with Cytofluor 2300 (Millipore). From the obtained fluorescence intensity, the number of adherent cells was calculated. Each test compound was reacted with the Jurkat cells before the beginning of the adhesion reaction. In Table 18, the IC50 of each compound (i.e. the concentration at which the number of adherent cells is reduced by 50%) is shown.

[2] = tested on: Mouse Experimental Autoimmune Encephalomyelitis Model; assay: Inhibitory Effect of Compounds Against Mouse Experimental Autoimmune Encephalomyelitis Model; type: in vivo; settings: orally 50 mg/kg every day from one day before inoculation of PLP139-151; female SJL mouse; scored at Days 11, 12 or 14
Description: This method was carried out in accordance with the literature “Int. Immunol., 9, 1243-1251 (1997)”.
A PBS solution containing 2 mg/mL partial synthetic peptide (PLP139-151) of proteolipid protein was mixed with an equal amount of Freund's complete adjuvant, and the resulting mixture was inoculated intracutaneously into both lateral regions of 7-week-old female SJL mouse (Charles River Laboratories Japan) in a total amount of 0.1 mL (0.05 mL per one side). The compounds described in Example 77, Example 78, Example 80, Example 81, Example 83 and Example 84 were orally administered at a dose of 50 mg/kg every day from one day before the inoculation, and neurological symptoms was scored (0: normal, 1: limp tail or hind limb weakness, 2: limp tail and hind limb weakness, 3: partial hind limb paralysis, 4: complete hind limb paralysis, 5: moribund state) at Days 11, 12 or 14. The scoring was carried out by using the method described in Current Protocols in Immunology (John Wiley & Sons, Inc).

[3] = Pharmacokinetic Evaluation in Rats; type: in vivo; settings: rat, male SD rats, administered orally or intravenously, 0.5 mg/mL dosing solution, plasma up to 8 hours; for clearance: intravenous, read-out: CLtot (total clearance) (converted); for bioavailability: oral, read-out: BA (bioavailability)
Description: Each compound was dissolved in PBS or PBS containing 10% PEG, thereby preparing 0.5 mg/mL dosing solution. The compound was administered orally or intravenously to male SD rats (7 to 9 weeks old). Blood was collected with time from the tail vein at time points up to 8 hours after the administration, and obtained blood was centrifuged to collect blood plasma. The blood plasma was pretreated by using the solid-phase extraction method, and the concentration of the compound was analyzed with LC/MS/MS (ESI negative mode).
As the Comparative Compound, 2-[4-((3,5-dichlorobenzensulfonylamino)methyl)benzoylamino]-5-(4-(methyl-pyrimidin-2-ylamino)phenyl)pent-4-enoic acid (XXI) described in WO 99/26923 was used.

[4] = Jurkat cell adhesion to ligand-expressing cells or ligand-immobilized plate, 37° C., 30 minutes

| Compound | IC50 [1, 4] [µM] | clearance [3] [L/h/kg] | bioavailability [3] [%] | IC50 [1] [µM] | rate of reduction of increase in the score of neurological symptoms [2] [%] |
| --- | --- | --- | --- | --- | --- |
| CCCCN(c1ccc(/C=C/CC(NC(=O)c2c(Cl)cccc2Cl)C(=O)O)cc1)c1ncccn1 (stereo not shown) [Example 37, (E)-5-(4-Butyl-pyrimidin-2-yl-amino)-phenyl]-2-(2,6-dichlorobenzamido)-pent-4-enoic acid sodium salt] |  |  |  | 0.16 |  |
| O=C(NC(C/C=C/c1ccc(N(CC2CC2)c2ncccn2)cc1)C(=O)O)c1c(Cl)cccc1Cl (stereo not shown) [Example 53, (E)-5-[4-(Cyclopropylmethyl-pyrimidin-2-ylamino)phenyl]-2-(2,6-dichlorobenzamido)pent-4-enoic acid sodium salt] |  |  |  | 0.12 |  |
| CC(C)CN(c1ccc(/C=C/CC(NC(=O)c2c(Cl)cccc2Cl)C(=O)O)cc1)c1ncccn1 (stereo not shown) [Example 55, (E)-2-(2,6-Dichlorobenzamido)-5-[4-(isobutyl-pyrimidin-2-ylamino)phenyl]pent-4-enoic acid sodium salt] |  |  |  | 0.42 |  |
| COC1(c2ccc(/C=C/C[C@H](NC(=O)c3c(Cl)cccc3Cl)C(=O)O)cc2)CCOCC1 [Example 77, (S,E)-2-(2,6-Dichlorobenzamido)-5-[4-(4-methoxytetrahydropyran-4-yl)-phenyl]pent-4-enoic acid] | 0.049 | 0.962 | 20 |  | 40 |
| COC1(c2ccc(/C=C/C[C@H](NC(=O)c3c(Cl)cccc3Cl)C(=O)[O-])cc2)CCOCC1.[Na+] [Example 78, (S,E)-2-(2,6-Dichlorobenzamido)-5-[4-(4-methoxytetrahydropyran-4-yl)-phenyl]pent-4-enoic acid sodium salt] |  | 0.996 | 26.1 |  | 60 |
| CN(c1ccc(/C=C/C[C@H](NC(=O)c2c(Cl)cccc2Cl)C(=O)[O-])cc1)c1ncccn1.[Na+] [Example 81, (S,E)-2-(2,6-Dichlorobenzamido)-5-[4-(methyl-pyrimidin-2-ylamino)phenyl]pent-4-enoic acid sodium salt] |  | 0.966 | 50.9 |  | 68 |

Second part, led by results:

| IC50 [1, 4] [µM] | clearance [3] [L/h/kg] | bioavailability [3] [%] | Compound | IC50 [1] [µM] | rate of reduction of increase in the score of neurological symptoms [2] [%] |
| --- | --- | --- | --- | --- | --- |
| 0.1 |  |  | CC(C)=CCN(c1ccc(/C=C/CC(NC(=O)c2c(Cl)cccc2Cl)C(=O)O)cc1)c1ncccn1 (stereo not shown) [Example 51, (E)-2-(2,6-Dichlorobenzamido)-5-[4-((3-methyl-2-butenyl)-pyrimidin-2-ylamino)phenyl]pent-4-enoic acid sodium salt] |  |  |
| 0.095 | 0.906 | 47.6 | CN(c1ccc(/C=C/C[C@H](NC(=O)c2c(Cl)cccc2Cl)C(=O)O)cc1)c1ncccn1 [Example 80, (S,E)-2-(2,6-Dichlorobenzamido)-5-[4-(methyl-pyrimidin-2-ylamino)phenyl]pent-4-enoic acid] |  | 60 |
| 0.017 | 1.09 | 40 | CC(C)N(c1ccc(/C=C/C[C@H](NC(=O)c2c(Cl)cccc2Cl)C(=O)O)cc1)c1ncccn1 [Example 83, (S,E)-2-(2,6-Dichlorobenzamido)-5-[4-(isopropyl-pyrimidin-2-ylamino)phenyl]pent-4-enoic acid] |  | 70 |
|  | 1.18 | 58.5 | CC(C)N(c1ccc(/C=C/C[C@H](NC(=O)c2c(Cl)cccc2Cl)C(=O)[O-])cc1)c1ncccn1.[Na+] [Example 84, (S,E)-2-(2,6-Dichlorobenzamido)-5-[4-(isopropyl-pyrimidin-2-ylamino)phenyl]pent-4-enoic acid sodium salt] |  | 67 |
